Results reported in ChEMBL document CHEMBL1130891, “Solid-phase synthesis of N-substituted amidinophenoxy pyridines as factor XA inhibitors” (Bioorg Med Chem Lett, 1998).
pKi: −log10 of the molar value.

Target: Coagulation factor X (Homo sapiens, UniProt P00742)
Test: Binding affinity was evaluated against Coagulation factor X

Coagulation factor X, sequence (P00742 41-179 limits assumed): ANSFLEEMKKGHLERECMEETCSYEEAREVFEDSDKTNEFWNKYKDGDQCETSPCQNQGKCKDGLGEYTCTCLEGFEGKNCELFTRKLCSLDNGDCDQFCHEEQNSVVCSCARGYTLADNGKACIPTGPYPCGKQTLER
Coagulation factor X, sequence (P00742 235-488 limits assumed): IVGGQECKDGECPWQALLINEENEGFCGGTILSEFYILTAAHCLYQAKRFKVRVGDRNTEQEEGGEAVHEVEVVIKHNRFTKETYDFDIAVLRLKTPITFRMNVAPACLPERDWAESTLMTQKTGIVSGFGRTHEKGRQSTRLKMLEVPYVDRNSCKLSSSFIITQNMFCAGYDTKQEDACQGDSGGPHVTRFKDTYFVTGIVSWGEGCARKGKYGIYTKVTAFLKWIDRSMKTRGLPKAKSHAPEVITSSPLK

pKi	SMILES
< 5.30	Cc1c(F)c(Oc2cccc(C(=N)N)c2)nc(N2CCN(c3ccco3)CC2)c1F
< 5.30	CCOC(=O)C1CCCN(c2nc(Oc3cccc(C(=N)N)c3)c(F)c(C)c2F)C1 (stereo not drawn)
8.17	N=C(N)c1cccc(COc2ccccc2)c1
< 5.30	Cc1cccc(C)c1N1CCN(c2nc(Oc3cccc(C(=N)N)c3)c(F)c(C)c2F)CC1
< 5.30	Cc1c(F)c(NCCCN2CCCC2=O)nc(Oc2cccc(C(=N)N)c2)c1F
6.25	Cc1c(F)c(Oc2cccc(C(=N)N)c2)nc(N2CCC(C)(c3ccccc3)CC2)c1F
< 5.30	CC(=N)N1CCC(Oc2nc(Oc3cccc(C(=N)N)c3)c(F)c(C)c2F)C1 (stereo not drawn)
< 5.30	Cc1c(F)c(Oc2cccc(C(=N)N)c2)nc(N2CCN(CC(=O)N3CCOCC3)CC2)c1F
< 5.30	Cc1c(F)c(NC2CCCCC2)nc(Oc2cccc(C(=N)N)c2)c1F
< 5.30	CCCOCCNc1nc(Oc2cccc(C(=N)N)c2)c(F)c(C)c1F
< 5.30	Cc1c(F)c(Oc2cccc(C(=N)N)c2)nc(OC2CCNC2)c1F (stereo not drawn)
7.89	N=C(N)c1ccc(/C=C2/CCCC/C(=C/c3ccc(C(=N)N)cc3)C2=O)cc1
< 5.30	Cc1c(F)c(Oc2cccc(C(=N)N)c2)nc(N2CCC[C@H]2CO)c1F
< 5.30	Cc1c(F)c(Oc2cccc(C(=N)N)c2)nc(N2CCN(C)CC2)c1F
< 5.30	Cc1c(F)c(Oc2cccc(C(=N)N)c2)nc(N2CCN(c3ccc4c(c3)OCO4)CC2)c1F
< 5.30	Cc1c(F)c(NCCN(C)C)nc(Oc2cccc(C(=N)N)c2)c1F
6.31	Cc1c(F)c(Oc2cccc(C(=N)N)c2)nc(N2CCN(C3CCCCC3)CC2)c1F
6.39	N=C(N)c1ccccc1 [BENZAMIDINE]
